Common to all, as to format: biochemical
Assay [1] concerns the target Butyrylcholinesterase (BuChE) (Homo sapiens, UniProt P06276). Briefly: Butyrylcholinesterase inhibitory efficacy (butyrylthiocholine/DTNB absorbance assay). The following applies: compound 0-200 μM; enzyme 50 mU/ml; N.D. = Not Detected. Here is the method:
(§1) Acetylcholinesterase or butyrylcholinesterase was prepared at 50 mU/ml, 50 μl was added to a 96-well plate, mixed with the aliquoted compound, and left for 10 minutes. The substrate, acetylthiocoline 0.05 mg/mL or butyrylthiocoline 0.1 mg/ml, was prepared and 50 μl was added to a 96-well plate and left for 10 minutes. Dithionitrobenzoic acid (DTNB) was prepared at 0.3 mg/ml, then 50 μl was added to a 96-well plate and left for 10 minutes.

The target in assay [2] is Acetylcholinesterase (AChE) (Homo sapiens, UniProt P22303). Briefly: Acetylcholinesterase inhibitory efficacy (acetylthiocholine/DTNB absorbance assay). The procedure: as §1
Sequence of Acetylcholinesterase (AChE) (P22303 32-614, species assumed): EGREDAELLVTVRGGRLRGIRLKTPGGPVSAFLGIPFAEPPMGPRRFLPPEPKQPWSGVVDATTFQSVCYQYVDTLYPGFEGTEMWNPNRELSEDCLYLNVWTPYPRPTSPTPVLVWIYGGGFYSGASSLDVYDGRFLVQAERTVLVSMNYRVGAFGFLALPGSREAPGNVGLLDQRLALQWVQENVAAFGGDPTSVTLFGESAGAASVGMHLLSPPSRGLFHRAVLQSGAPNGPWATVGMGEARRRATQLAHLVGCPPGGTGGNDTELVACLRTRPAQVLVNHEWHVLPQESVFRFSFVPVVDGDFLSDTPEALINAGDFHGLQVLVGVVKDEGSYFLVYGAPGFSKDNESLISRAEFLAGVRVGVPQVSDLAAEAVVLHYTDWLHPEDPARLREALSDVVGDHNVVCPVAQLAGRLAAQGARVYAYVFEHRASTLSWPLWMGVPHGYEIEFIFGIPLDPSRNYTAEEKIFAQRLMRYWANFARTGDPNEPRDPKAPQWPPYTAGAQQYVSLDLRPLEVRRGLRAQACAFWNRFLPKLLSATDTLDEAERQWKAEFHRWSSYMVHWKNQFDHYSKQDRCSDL
Assay [3] deals with T1, Monoamine oxidase B (MAO-B) (Homo sapiens, UniProt P27338).
T1 sequence (P27338 1-520): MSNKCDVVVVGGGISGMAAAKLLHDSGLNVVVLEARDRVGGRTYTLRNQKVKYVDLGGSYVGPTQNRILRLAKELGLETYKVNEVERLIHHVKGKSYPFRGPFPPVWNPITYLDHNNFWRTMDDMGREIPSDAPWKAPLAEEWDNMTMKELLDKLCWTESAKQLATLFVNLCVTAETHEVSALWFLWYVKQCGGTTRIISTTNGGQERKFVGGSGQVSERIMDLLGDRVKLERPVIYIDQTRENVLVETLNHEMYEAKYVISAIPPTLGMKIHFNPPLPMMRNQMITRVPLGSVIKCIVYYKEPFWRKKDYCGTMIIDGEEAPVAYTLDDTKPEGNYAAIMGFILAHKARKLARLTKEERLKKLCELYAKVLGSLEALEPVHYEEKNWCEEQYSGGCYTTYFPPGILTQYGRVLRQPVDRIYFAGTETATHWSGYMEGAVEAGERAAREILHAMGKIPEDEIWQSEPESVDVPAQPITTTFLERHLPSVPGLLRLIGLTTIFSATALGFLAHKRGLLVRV
Briefly: Monoamine oxidase B inhibitory efficacy (kynuramine fluorescence assay). The following applies: compound 0-200 μM; enzyme 2 mU/mL; kynuramine substrate; N.D. = Not Detected. Here is the method:
Samples were prepared by dilution with DMSO to give concentrations of 0, 2, 5, 10, 20, 50, 100, and 200 μM of the compound, and 5 μl was dispensed into a 96-well plate. 135 μl of potassium phosphate buffer (0.1 M, 7.4 pH) was dispensed into a 96-well plate. Monoamine oxidase B was prepared at 2 mU/mL, and 50 μl was added to the 96-well plate, mixed with the dispensed compound, and left for 20 minutes. The substrate, kynuramine solution, was prepared at 100 μM, then 10 μl was added to a 96-well plate and left for 10 min. The reaction was stopped by adding 75 μl of NaOH (2N). The enzyme activity was calculated by measuring the concentration of kynuramine degraded by the enzyme using a fluorometer under 310 nm (excitation)/380 nm (emission) conditions. For the fluorescence blank experiment, potassium phosphate buffer was added instead of monoamine oxidase B to correct the compound-induced fluorescence intensity values.

Each structure is given as a SMILES string. pIC50: −log10 of the molar value.

Sequence of Butyrylcholinesterase (BuChE) (P06276 29-602): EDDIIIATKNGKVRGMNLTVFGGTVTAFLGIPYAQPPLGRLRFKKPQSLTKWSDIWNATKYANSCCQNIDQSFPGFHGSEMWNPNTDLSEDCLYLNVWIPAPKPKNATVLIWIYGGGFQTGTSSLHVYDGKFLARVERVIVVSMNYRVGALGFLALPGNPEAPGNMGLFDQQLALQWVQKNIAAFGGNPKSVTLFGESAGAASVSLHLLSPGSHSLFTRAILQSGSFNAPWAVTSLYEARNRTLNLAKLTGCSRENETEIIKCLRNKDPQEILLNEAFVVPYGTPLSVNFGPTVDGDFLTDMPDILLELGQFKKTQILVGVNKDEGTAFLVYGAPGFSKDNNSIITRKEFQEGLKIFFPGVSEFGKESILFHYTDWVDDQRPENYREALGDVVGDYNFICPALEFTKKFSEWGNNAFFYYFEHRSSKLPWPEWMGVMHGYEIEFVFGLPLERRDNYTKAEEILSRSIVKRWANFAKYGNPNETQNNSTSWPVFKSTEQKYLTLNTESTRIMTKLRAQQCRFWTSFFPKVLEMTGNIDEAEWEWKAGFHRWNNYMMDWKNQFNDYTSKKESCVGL

As usually defined, the pIC50 is −log10 of the IC50, conventionally taken in molar units. Take `CCCCCc1cc2c(c(O)c1C(=O)NC1CCCC1)C=CC(C)(CCC=C(C)C)O2` (stereo not drawn) [Compound 4e, N-cyclopentyl-5-hydroxy-2-methyl-2-(4-methylpent-3-en-1-yl)-7-pentyl-2H-chromene-6-carboxamide]: the pIC50 in assay [1] and in assay [2] was 6.40 each time.

In the case of `CCCCCc1cc2c(c(O)c1C(=O)N1CCN(CCO)CC1)C=CC(C)(CCC=C(C)C)O2` (stereo not drawn) [Compound 4ae, (5-hydroxy-2-methyl-2-(4-methylpent-3-en-1-yl)-7-pentyl-2H-chromen-6-yl)(4-(2-hydroxyethyl)piperazin-1-yl)methanone], the pIC50 in assay [1] was 4.14; in assay [2], above 6.30; in assay [3], 4.25.

For `CCCCCc1cc2c(c(O)c1C(=O)NN1CCCCC1)C=CC(C)(CCC=C(C)C)O2` (stereo not drawn) [Compound 4z, 5-hydroxy-2-methyl-2-(4-methylpent-3-en-1-yl)-7-pentyl-N-(piperidin-1-yl)-2H-chromene-6-carboxamide], the figures for the pIC50 in assay [1], in assay [2] and in assay [3] were 5.89, 4.54 and 3.81, respectively.

Turning to `CCCCCc1cc2c(c(O)c1C(=O)Nc1ccccc1)C=CC(C)(CCC=C(C)C)O2` (stereo not drawn) [Compound 4b, 5-hydroxy-2-methyl-2-(4-methylpent-3-en-1-yl)-7-pentyl-N-phenyl-2H-chromene-6-carboxamide], the results for the pIC50 in assay [1], in assay [2] and in assay [3] were 4.02, 6.40 and 3.75, respectively.

Turning to `CCCCCc1cc2c(c(O)c1C(=O)NCCc1ccc(O)cc1)C=CC(C)(CCC=C(C)C)O2` (stereo not drawn) [Compound 4x, 5-hydroxy-N-(4-hydroxyphenethyl)-2-methyl-2-(4-methylpent-3-en-1-yl)-7-pentyl-2H-chromene-6-carboxamide], the pIC50 in assay [1] is 5.59; in assay [2] it was 6.10.

Turning to `CCCCCc1cc2c(c(O)c1C(=O)NC1CCN(C)CC1)C=CC(C)(CCC=C(C)C)O2` (stereo not drawn) [Compound 4q, 5-hydroxy-2-methyl-2-(4-methylpent-3-en-1-yl)-N-(1-methylpiperidin-4-yl)-7-pentyl-2H-chromene-6-carboxamide], the pIC50 in assay [1] is 5.21; in assay [3], 3.88.

Consider `CCCCCc1cc2c(c(O)c1C(=O)NC1Cc3ccccc3C1)C=CC(C)(CCC=C(C)C)O2` (stereo not drawn) [Compound 4aa, N-(2,3-dihydro-1H-inden-2-yl)-5-hydroxy-2-methyl-2-(4-methylpent-3-en-1-yl)-7-pentyl-2H-chromene-6-carboxamide], for which the pIC50 in assay [1] was 3.79; in assay [2], 5.70; in assay [3] it was 4.00.

Values taken from US20250066343A1, “NOVEL CANNAB[…] DERIVATIVE, PREPARATION METHOD THEREFOR, AND COMPOSITION COMPRISING SAME FOR IMPROVING COGNITIVE FUNCTION” (priority 2021, published 2025).
